Laboratory results reported in patent US8431593B2, “Heteroaryl amide derivatives” (H. Lundbeck A/S, priority 2006, dated 2013).

Molecular target: T1, P2X7 receptor (Homo sapiens, UniProt Q99572)
T1 construct: host or cells: SH-SY5Y
T1 sequence (Q99572 1-595): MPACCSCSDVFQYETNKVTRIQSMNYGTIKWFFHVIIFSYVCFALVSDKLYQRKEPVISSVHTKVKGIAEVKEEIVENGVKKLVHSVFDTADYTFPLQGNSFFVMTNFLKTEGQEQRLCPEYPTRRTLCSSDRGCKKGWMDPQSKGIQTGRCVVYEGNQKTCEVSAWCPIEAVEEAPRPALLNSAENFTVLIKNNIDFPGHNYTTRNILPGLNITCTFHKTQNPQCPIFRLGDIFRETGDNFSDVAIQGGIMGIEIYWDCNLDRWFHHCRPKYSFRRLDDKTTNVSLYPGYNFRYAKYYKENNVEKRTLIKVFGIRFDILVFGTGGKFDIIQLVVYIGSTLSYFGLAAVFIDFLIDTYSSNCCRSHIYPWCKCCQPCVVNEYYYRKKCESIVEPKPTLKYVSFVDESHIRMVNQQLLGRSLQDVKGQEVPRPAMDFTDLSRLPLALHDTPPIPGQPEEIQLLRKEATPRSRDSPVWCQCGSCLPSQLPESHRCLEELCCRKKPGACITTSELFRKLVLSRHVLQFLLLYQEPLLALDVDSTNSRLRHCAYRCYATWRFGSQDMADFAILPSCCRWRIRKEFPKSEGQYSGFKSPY
Assay: P2X7 calcium mobilization assay, high throughput, antagonist activity (Example 4A)
Format: cell-based
Details: 50% decrease in the fluorescence response of cells exposed to 80 μM of 2′(3′)-O-(4-benzoyl-benzoyl)adenosine 5′-triphosphate; Example 4A; read-out: IC50
Procedure, shortened: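 Antagonism was measured as calcium mobilization on FLIPR^TETRA after a 1 h room-temperature compound preincubation of dye-loaded cells. Baseline from no-agonist wells was subtracted from each well's maximum RFU.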

Compound | IC50 [µM]
CC(C)(O)C1CCCCN1C(=O)c1cn2c(C(=O)NCC34CC5CC(CC(C5)C3)C4)cccc2n1 (stereo not drawn) [Compound 702, N-(adamantan-1-ylmethyl)-2-{[2-(1-hydroxy-1-methylethyl)piperidin-1-yl]carbonyl}imidazo[1,2-a]pyridine-5-carboxamide] | < 2
CN(C)CCNC(=O)C1CCCN(C(=O)c2cn3c(C(=O)NCC45CC6CC(CC(C6)C4)C5)cccc3n2)C1 (stereo not drawn) [Compound 704, N-(adamantan-1-ylmethyl)-2-[(3-{[2-(dimethylamino)ethyl]carbamoyl}piperidin-1-yl)carbonyl]imidazo[1,2-a]pyridine-5-carboxamide] | < 2
N#CCC1CCN(C(=O)c2cn3c(C(=O)NCC45CC6CC(CC(C6)C4)C5)cccc3n2)CC1 [Compound 705, N-(adamantan-1-ylmethyl)-2-{[4-(cyanomethyl)piperidin-1-yl]carbonyl} imidazo[1,2-a]pyridine-5-carboxamide] | < 2
CN1CCN(C)C(CN(C)C(=O)c2cn3c(C(=O)NCC45CC6CC(CC(C6)C4)C5)cccc3n2)C1 (stereo not drawn) [Compound 706, 5-N-(adamantan-1-ylmethyl)-2-N-[(l,4-dimethylpiperazin-2-yl)methyl]-2-N-methylimidazo[1,2-a]pyridine-2,5-dicarboxamide] | < 2
CN(CC1CCCCN1C)C(=O)c1cn2c(C(=O)NCC34CC5CC(CC(C5)C3)C4)cccc2n1 (stereo not drawn) [Compound 707, 5-N-(adamantan-1-ylmethyl)-2-N-methyl-2-N-[(1-methylpiperidin-2-yl)methyl]imidazo[1,2-a]pyridine-2,5-dicarboxamide] | < 2
COCc1ccc(CN(C)C(=O)c2cn3c(C(=O)NCC45CC6CC(CC(C6)C4)C5)cccc3n2)nc1 [Compound 710, 5-N-(adamantan-1-ylmethyl)-2-N-{[5-(methoxymethyl)pyridin-2-yl]methyl}-2-N-methylimidazo[1,2-a]pyridine-2,5-dicarboxamide] | < 2
CN(Cc1ccc(C(F)(F)F)cn1)C(=O)c1cn2c(C(=O)NCC34CC5CC(CC(C5)C3)C4)cccc2n1 [Compound 711, 5-N-(adamantan-1-ylmethyl)-2-N-methyl-2-N-{[5-(trifluoromethyl)pyridin-2-yl]methyl}imidazo[1,2-a]pyridine-2,5-dicarboxamide] | < 2
CCc1ccc(CN(C)C(=O)c2cn3c(C(=O)NCC45CC6CC(CC(C6)C4)C5)cccc3n2)cn1 [Compound 712, 5-N-(adamantan-1-ylmethyl)-2-N-[(6-ethylpyridin-3-yl)methyl]-2-N-methylimidazo[1,2-a]pyridine-2,5-dicarboxamide] | < 2
CCc1ccc(CN(C)C(=O)c2cn3c(C(=O)NCC45CC6CC(CC(C6)C4)C5)cccc3n2)nc1 [Compound 713, 5-N-(adamantan-1-ylmethyl)-2-N-[(5-ethylpyridin-2-yl)methyl]-2-N-methylimidazo[1,2-a]pyridine-2,5-dicarboxamide] | < 2
O=C(NCC12CC3CC(CC(C3)C1)C2)c1cccc2nc(C(=O)N3CCCN(C4CCC4)CC3)cn12 [Compound 714, N-(adamantan-1-ylmethyl)-2-[(4-cyclobutyl-1,4-diazepan-1-yl)carbonyl]imidazo[1,2-a]pyridine-5-carboxamide] | < 2
CCN(Cc1ccc(C2=NCCN2)cc1)C(=O)c1cn2c(C(=O)NCC34CC5CC(CC(C5)C3)C4)cccc2n1 [Compound 715, 5-N-(adamantan-1-ylmethyl)-2-N-[4-(4,5-dihydro-1H-imidazol-2-yl)benzyl]-2-N-ethylimidazo[1,2-a]pyridine-2,5-dicarboxamioe] | < 2
CC(C)c1ccc(CN(C)C(=O)c2cn3c(C(=O)NCC45CC6CC(CC(C6)C4)C5)cccc3n2)nc1 [Compound 716, 5-N-(adamantan-1-ylmethyl)-2-N-[(5-isopropylpyridin-2-yl)methyl]-2-N-methylimidazo[1,2-a]pyridine-2,5-dicarboxamide] | < 2
